ChEMBL document CHEMBL4665624, “Synthesis of 5-(4-(1H-phenanthro[9,10-d]imidazol-2-yl)benzylidene)thiazolidine-2,4-dione as promising DNA and serum albumin-binding agents and evaluation of antitumor activity” (Eur J Med Chem, 2019)

Legend:
Albumin [1] = target: T1, Albumin (Bos taurus, UniProt P02769); experiment: Binding affinity to bovine serum albumin assessed as quenching constant at 318K by fluorescence emission spectrum analysis; format: ADME, cell-free; conditions: cattle
SNB-19 = experiment: Antitumor activity against human SNB-19 cells assessed as cell growth inhibition at 10 uM incubated for 48 hrs by sulforhodamine B assay; format: functional; conditions: read-out: GI
NCI/ADR-RES = experiment: Antitumor activity against human NCI/ADR-RES cells assessed as cell growth inhibition at 10 uM incubated for 48 hrs by sulforhodamine B assay; format: functional; conditions: read-out: GI
Hs-578T = experiment: Antitumor activity against human HS 578T cells assessed as cell growth inhibition at 10 uM incubated for 48 hrs by sulforhodamine B assay; format: functional; conditions: read-out: GI
Albumin [2] = target: Albumin (Homo sapiens, UniProt P02768); experiment: Binding affinity to human serum albumin assessed as binding constant by UV-Vis absorption spectroscopy; format: ADME, cell-free
UO-31 = experiment: Antitumor activity against human UO-31 cells assessed as cell growth inhibition at 10 uM incubated for 48 hrs by sulforhodamine B assay; format: functional; conditions: read-out: GI
OVCAR-3 = experiment: Antitumor activity against human OVCAR-3 cells assessed as cell growth inhibition at 10 uM incubated for 48 hrs by sulforhodamine B assay; format: functional; conditions: read-out: GI
A549 [3] = experiment: Cytotoxicity against human A549/ATCC assessed as reduction in cell viability at 0.01 uM after 48 hrs by MTT assay; format: functional
HT-29 = experiment: Antitumor activity against human HT-29 cells assessed as cell growth inhibition at 10 uM incubated for 48 hrs by sulforhodamine B assay; format: functional; conditions: read-out: GI
NCI-H460 = experiment: Antitumor activity against human NCI-H460 assessed as cell growth inhibition at 10 uM incubated for 48 hrs by sulforhodamine B assay; format: functional; conditions: read-out: GI
MOLT-4 = experiment: Antitumor activity against human MOLT4 cells assessed as cell growth inhibition at 10 uM incubated for 48 hrs by sulforhodamine B assay; format: functional; conditions: read-out: GI
A498 = experiment: Antitumor activity against human A498 cells assessed as cell growth inhibition at 10 uM incubated for 48 hrs by sulforhodamine B assay; format: functional; conditions: read-out: GI
Calf thymus DNA = experiment: Binding affinity to calf thymus DNA assessed as binding constant by UV-Vis absorption spectrophotometric method based Benesi-Hildebrand equation analysis; format: nucleic-acid assay; conditions: Bos taurus
HEK293 = experiment: Cytotoxicity against human HEK293 assessed as reduction in cell viability at 1 uM after 48 hrs by MTT assay; format: cell-based; conditions: hek293, 48 h
Albumin [4] = target: T1, Albumin; experiment: Binding affinity to bovine serum albumin assessed as decrease in fluorescence emission intensity at 350 nm at 0-12 uM by fluorescence emission spectrum analysis; format: ADME, cell-free; conditions: cattle, 0.35 µM
A549 [5] = experiment: Cytotoxicity against human A549/ATCC assessed as reduction in cell viability at 0.1 uM after 48 hrs by MTT assay; format: functional
RPMI-8226 = experiment: Antitumor activity against human RPMI8226 cells assessed as cell growth inhibition at 10 uM incubated for 48 hrs by sulforhodamine B assay; format: functional; conditions: read-out: GI
Albumin [6] = target: T1, Albumin; experiment: Binding affinity to bovine serum albumin assessed as binding constant by UV-vis absorption spectral titration analysis based Benesi-Hildebrand equation analysis; format: ADME, cell-free; conditions: cattle

T1 sequence (P02769 whole entry): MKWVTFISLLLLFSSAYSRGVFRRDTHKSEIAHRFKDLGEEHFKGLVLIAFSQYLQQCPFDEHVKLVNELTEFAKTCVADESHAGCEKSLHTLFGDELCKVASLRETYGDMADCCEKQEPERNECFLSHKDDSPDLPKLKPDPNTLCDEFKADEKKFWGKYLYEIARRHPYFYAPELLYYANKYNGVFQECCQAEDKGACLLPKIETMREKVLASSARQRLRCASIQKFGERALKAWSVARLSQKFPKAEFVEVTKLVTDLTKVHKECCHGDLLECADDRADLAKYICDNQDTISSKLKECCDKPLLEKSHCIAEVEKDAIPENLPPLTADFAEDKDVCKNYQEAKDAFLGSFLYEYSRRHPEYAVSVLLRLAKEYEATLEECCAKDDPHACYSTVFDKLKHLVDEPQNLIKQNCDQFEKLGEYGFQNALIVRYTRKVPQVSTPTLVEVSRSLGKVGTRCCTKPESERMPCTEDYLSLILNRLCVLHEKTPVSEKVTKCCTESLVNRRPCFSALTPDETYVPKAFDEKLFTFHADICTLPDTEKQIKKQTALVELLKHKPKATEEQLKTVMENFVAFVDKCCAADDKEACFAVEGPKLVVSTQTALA
Albumin (Homo sapiens, UniProt P02768), sequence (P02768 whole entry): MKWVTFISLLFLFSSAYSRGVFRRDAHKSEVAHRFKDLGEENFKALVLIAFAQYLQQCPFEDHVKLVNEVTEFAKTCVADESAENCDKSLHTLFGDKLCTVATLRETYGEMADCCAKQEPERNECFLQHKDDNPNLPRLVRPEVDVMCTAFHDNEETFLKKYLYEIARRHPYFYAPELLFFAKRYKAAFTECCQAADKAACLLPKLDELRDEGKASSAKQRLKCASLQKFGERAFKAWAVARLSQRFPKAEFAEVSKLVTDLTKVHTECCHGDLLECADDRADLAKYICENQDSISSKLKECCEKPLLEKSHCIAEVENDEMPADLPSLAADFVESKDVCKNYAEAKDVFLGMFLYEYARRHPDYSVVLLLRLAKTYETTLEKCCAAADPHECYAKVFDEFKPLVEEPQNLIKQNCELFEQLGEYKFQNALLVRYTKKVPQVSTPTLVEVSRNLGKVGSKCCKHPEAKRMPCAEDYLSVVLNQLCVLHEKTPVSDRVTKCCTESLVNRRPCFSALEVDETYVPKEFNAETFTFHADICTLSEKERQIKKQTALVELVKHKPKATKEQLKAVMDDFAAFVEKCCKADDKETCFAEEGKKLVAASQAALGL

O=C1NC(=O)/C(=C/c2ccc(-c3nc4c5ccccc5c5ccccc5c4[nH]3)cc2)S1
Kq (Albumin [1]): 3.51 10^13/M/sec
inhibition of growth at 10 µM (SNB-19): 18.1%
inhibition of growth at 10 µM (NCI/ADR-RES): < 10%
inhibition of growth at 10 µM (Hs-578T): 17.6%
Kb (Albumin [2]): 9.35 10^4/M
inhibition of growth at 10 µM (UO-31): 25.5%
inhibition of growth at 10 µM (OVCAR-3): 21.3%
Activity (A549 [3]): 42%
inhibition of growth at 10 µM (HT-29): 24%
inhibition of growth at 10 µM (NCI-H460): 19.7%
inhibition of growth at 10 µM (MOLT-4): 47.1%
inhibition of growth at 10 µM (A498): 93%
Kb (Calf thymus DNA): 2.95 10^4/M
Activity (HEK293): 6%
Activity (Albumin [4]): Active
Activity (A549 [5]): 59%
inhibition of growth at 10 µM (RPMI-8226): 66.1%
Kb (Albumin [6]): 6.57 10^4/M
